# Where two headings read alike, the source gives them in different places.
# Legend:
# SEQ ID NO:2 = details: male, Sprague-Dawley, rat, in vivo, ip, 250 mg/kg
# Method: (§1) For each target preparation, frozen liver was homogenized and lysed in TRIZOL reagent (Life Technologies, Gaithersburg Md.) following the modifications for liver RNA isolation. Messenger RNA was isolated using an OLIGOTEX kit (QIAGEN) and labeled with either Cy3- or Cy5-labeled primers (Operon Technologies, Alameda Calif.) using the GEMBRIGHT labeling kit (Incyte Pharmaceuticals). […] Quantitative and differential expression pattern control cDNAs were added to each labeling reaction. Labeled cDNA was treated with 0.5 M sodium bicarbonate. (pH 9.2) for 20 min at 85 ° C. to degrade the RNA and purified using two successive CHROMA SPIN 30 gel filtration spin columns (Clontech, Palo Alto Calif.). Cy3-labeled control sample and Cy5-labeled experimental sample were combined and precipitated in glycogen, sodium acetate, and ethanol.
# (§2) Hybridizations were carried out using the methods described by Shalon (supra).
# (§3) The microscope used to detect the reporter-labeled hybridization complexes was equipped with an Innova 70 mixed gas 10 W laser (Coherent Lasers, Santa Clara Calif.) capable of generating spectral lines at 488 nm for excitation of Cy3, and 632 nm for excitation of Cy5. The excitation laser light was focused on the array using a 20×microscope objective (Nikon, Melville N.Y.). The slide containing the array was placed on a computer-controlled X-Y stage on the microscope and raster-scanned past the objective. The 1.8 cm×1.8 cm array used in the present example was scanned with a resolution of 20 micrometers.
# (§4) In two separate scans, a mixed gas multiline laser excited the two fluorophores sequentially. Emitted light was split, based on wavelength, into two photomultiplier tube detectors (PMT R1477, Hamamatsu Photonics, San Jose Calif.) corresponding to the two fluorophores. Appropriate filters positioned between the array and the photomultiplier tubes were used to filter the signals. The emission maxima of the fluorophores used were 565 nm for Cy3 and 650 nm for Cy5. Each array was typically scanned twice, one scan per fluorophore using the appropriate filters at the laser source, although the apparatus was capable of recording the spectra from both fluorophores simultaneously.
# (§5) When two probes from different sources (e.g., representing test and control cells), each labeled with a different fluorophore, are hybridized to a single array for the purpose of identifying genes that are differentially expressed, the calibration was done by labeling samples of the calibrating cDNA with the two fluorophores and adding identical amounts of each to the hybridization mixture.
# (§6) A grid was superimposed over the fluorescence signal image such that the signal from each spot was centered in each element of the grid. The fluorescence signal within each element was then integrated to obtain a numerical value corresponding to the average intensity of the signal. The software used for signal analysis was the GEMTOOLS gene expression analysis program (Incyte Pharmaceuticals).
# SEQ ID NO:8 = details: male, Sprague-Dawley, rat, in vivo, ip, 250 mg/kg
# Method: as §1, §2, §3, §4, §5, §6
# SEQ ID NO:5 = details: male, Sprague-Dawley, rat, in vivo, ip, 250 mg/kg
# Method: as §1, §2, §3, §4, §5, §6
# SEQ ID NO:3 = details: male, Sprague-Dawley, rat, in vivo, ip, 250 mg/kg
# Method: as §1, §2, §3, §4, §5, §6
# P450 3A2 = assay: microarray gene expression in treated rat liver; type: in vivo; details: clofibrate-treated rat liver, 250 mg/kg bw i.p. single dose
# Method: as §1, §2, §3, §4, §5, §6
# P450 4A = assay: microarray gene expression in treated rat liver; type: in vivo; details: clofibrate-treated rat liver, 250 mg/kg bw i.p. single dose
# Method: as §1, §2, §3, §4, §5, §6
# SEQ ID NO:4 = assay: microarray gene expression in treated rat liver; type: in vivo; details: CLO-treated rat liver, 250 mg/kg bw i.p. single dose
# Method: as §1, §2, §3, §4, §5, §6
# P450 LA-omega 4A3 = assay: microarray gene expression in treated rat liver; type: in vivo; details: clofibrate-treated rat liver, 250 mg/kg bw i.p. single dose
# Method: as §1, §2, §3, §4, §5, §6
smiles,measurement,setting,value
CCOC(=O)C(C)(C)Oc1ccc(Cl)cc1 [clofibrate],Gene expression (x-fold change) of SEQ ID NO: 2,SEQ ID NO:2; 12 h,2.6 x-fold change
same,Gene expression (x-fold change) of SEQ ID NO: 2,SEQ ID NO:2; 24 h,1.4 x-fold change
same,Gene expression (x-fold change) of SEQ ID NO: 2,SEQ ID NO:2; 3 days,0.5 x-fold change
same,Gene expression (x-fold change) of SEQ ID NO: 2,SEQ ID NO:2; 7 days,1.1 x-fold change
same,Gene expression (x-fold change) of SEQ ID NO: 2,SEQ ID NO:2; 28 days,1.2 x-fold change
same,Gene expression (x-fold change) of SEQ ID NO: 8,SEQ ID NO:8; 12 h,2.6 x-fold change
same,Gene expression (x-fold change) of SEQ ID NO: 8,SEQ ID NO:8; 24 h,1.7 x-fold change
same,Gene expression (x-fold change) of SEQ ID NO: 8,SEQ ID NO:8; 3 days,1.3 x-fold change
same,Gene expression (x-fold change) of SEQ ID NO: 8,SEQ ID NO:8; 7 days,1.3 x-fold change
same,Gene expression (x-fold change) of SEQ ID NO: 8,SEQ ID NO:8; 28 days,1.4 x-fold change
same,Gene expression (x-fold change) of SEQ ID NO: 5,SEQ ID NO:5; 12 h,1.7 x-fold change
same,Gene expression (x-fold change) of SEQ ID NO: 5,SEQ ID NO:5; 24 h,2.9 x-fold change
same,Gene expression (x-fold change) of SEQ ID NO: 5,SEQ ID NO:5; 3 days,1.6 x-fold change
same,Gene expression (x-fold change) of SEQ ID NO: 5,SEQ ID NO:5; 7 days,1.5 x-fold change
same,Gene expression (x-fold change) of SEQ ID NO: 5,SEQ ID NO:5; 28 days,1.2 x-fold change
same,Gene expression (x-fold change) of SEQ ID NO: 3,SEQ ID NO:3; 12 h,1.3 x-fold change
same,Gene expression (x-fold change) of SEQ ID NO: 3,SEQ ID NO:3; 24 h,2 x-fold change
same,Gene expression (x-fold change) of SEQ ID NO: 3,SEQ ID NO:3; 3 days,1.3 x-fold change
same,Gene expression (x-fold change) of SEQ ID NO: 3,SEQ ID NO:3; 7 days,1.5 x-fold change
same,Gene expression (x-fold change) of SEQ ID NO: 3,SEQ ID NO:3; 28 days,1.5 x-fold change
same,Gene expression (x-fold change) of P450 3A2,P450 3A2; 12 hours,0.14 x-fold change
same,Gene expression (x-fold change) of P450 3A2,P450 3A2; 24 hours,1.2 x-fold change
same,Gene expression (x-fold change) of P450 3A2,P450 3A2; 3 days,0.63 x-fold change
same,Gene expression (x-fold change) of P450 3A2,P450 3A2; 7 days,0.50 x-fold change
same,Gene expression (x-fold change) of P450 3A2,P450 3A2; 28 days,0.45 x-fold change
same,Gene expression (x-fold change) of P450 4A,P450 4A; 12 hours,7.0 x-fold change
same,Gene expression (x-fold change) of P450 4A,P450 4A; 24 hours,16.6 x-fold change
same,Gene expression (x-fold change) of P450 4A,P450 4A; 3 days,1.4 x-fold change
same,Gene expression (x-fold change) of P450 4A,P450 4A; 7 days,0.5 x-fold change
same,Gene expression (x-fold change) of P450 4A,P450 4A; 28 days,1.3 x-fold change
same,Gene expression (x-fold change) of SEQ ID NO: 4,SEQ ID NO:4; 12 hours,2 x-fold change
same,Gene expression (x-fold change) of SEQ ID NO: 4,SEQ ID NO:4; 24 hours,0.36 x-fold change
same,Gene expression (x-fold change) of SEQ ID NO: 4,SEQ ID NO:4; 3 days,0.47 x-fold change
same,Gene expression (x-fold change) of SEQ ID NO: 4,SEQ ID NO:4; 7 days,0.26 x-fold change
same,Gene expression (x-fold change) of SEQ ID NO: 4,SEQ ID NO:4; 28 days,0.30 x-fold change
same,Gene expression (x-fold change) of P450 LA-omega 4A3,P450 LA-omega 4A3; 12 hours,14.8 x-fold change
same,Gene expression (x-fold change) of P450 LA-omega 4A3,P450 LA-omega 4A3; 24 hours,26.6 x-fold change
same,Gene expression (x-fold change) of P450 LA-omega 4A3,P450 LA-omega 4A3; 3 days,1.1 x-fold change
same,Gene expression (x-fold change) of P450 LA-omega 4A3,P450 LA-omega 4A3; 7 days,0.5 x-fold change
same,Gene expression (x-fold change) of P450 LA-omega 4A3,P450 LA-omega 4A3; 28 days,0.47 x-fold change
